According to PMC11472058, “Trinucleotide cap analogs with triphosphate chain modifications: synthesis, properties, and evaluation as mRNA capping reagents” (Nucleic Acids Research, 2024):

What was measured:
human eIF4E1a = target: T1, human eIF4E1a (Homo sapiens, UniProt P06730); assay: Fluorescence quenching titration (FQT) binding assay with eIF4E; conditions: for Kd: fluorescence quenching titration, 20 °C, pH 7.2, average of triplicates ± SD, read-out: heIF4E1a KD
T1 construct: made in house; host or cells: E. coli Rosetta 2 (DE3)pLysS
Experimental: The human eIF4E1a protein was expressed without affinity tag in E. coli Rosseta 2 (DE3)pLysS strain (Novagen) under conditions leading to accumulation of the produced protein in inclusion bodies ([48]). The protein was extracted from inclusion bodies with buffer containing 6 M guanidine hydrochloride, refolded by one-step dialysis against 50 mM HEPES/KOH (pH 7.2), 100 mM KCl, 0.5 mM EDTA, 2 mM DTT, and purified by ion exchange chromatography on HiTrap SP HP 5 ml column (GE Healthcare) using salts gradient. Finally, protein was filtered using Ultrafree MC-HV Centrifugal PVDF filters with 0.45 μm membrane pore (Millipore) to remove protein aggregates and its concentration was determined spectrophotometrically assuming the theoretical extinction coefficient ϵ280nm = 52 940 L mol^−1cm^−1—calculated from amino acid composition using algorithm on ExPASy Server.
Fluorescence titration measurements were carried out on a LS-55 spectrofluorometer (Perkin Elmer Co., Norwalk, CT, USA) in a quartz semi-micro cuvette (Hellma, Germany) with optical lengths 4 mm and 10 mm for absorption and emission, respectively, which was thermostated at 20.0 ± 0.2 °C. The titrations were performed in 50 mM Hepes/KOH pH 7.2, 100 mM KCl, 0.5 mM EDTA and 1 mM DTT by adding 1 μl aliquots of increasing concentrations of the cap solutions to 1.4 ml of 0.1 μM eIF4E1a solution. The eIF4E1a fluorescence was excited at 280 nm and the fluorescence intensity was monitored at a single wavelength 340 nm. The measured fluorescence intensities were corrected for dilution (<4%) and for the inner filter effect. Association equilibrium constants (Kas) were obtained by fitting the theoretical curve for fluorescence intensity (F) upon total concentration of cap analogs ([L]) to the titration data according to the equation: […]
with the concentration of the cap analogs–eIF4E1a complex [cx] given by:
where Δϕ stands for the difference between the fluorescence efficiencies of the apo- and cap analog bound proteins; ϕlig-free is the fluorescence efficiency of the free cap analog; F(0) is the initial fluorescence, and Pact is the total concentration of the active protein ([49]). The final KAS values were calculated as a weighted average from three independent titrations and represented as the KD values. Numerical least-squares nonlinear regression analysis was performed using ORIGIN 2021 from Microcal Software Inc., USA.
Recognition of the mRNA 5′ cap by translation initiation factor 4E (eIF4E) is considered to be the rate-limiting step for the entire translation process ([63],[64]), therefore we investigated the affinity of novel trinucleotide cap analogs to the canonical human eIF4E1a protein by fluorescence quenching titration (FQT; Table 1 column 1, Figure 3) ([65]). As a reference, we determined the dissociation constant between heIF4E1a and the trinucleotide cap-1 structure m^7GpppAmpG, which was equal to 42 nM and very close to the analogous value previously determined for mouse Δ27NeIF4E (46 nM) ([12]). In the case of all modifications tested, the KD values for cap-heIF4E1a complexes are consistent with the results previously obtained for dinucleotide counterparts and murine eIF4E protein, although the magnitude of the modification effect is generally lower. The most tightly bound tetraphosphate analogs (compounds 10–12) show KD values of 6–7 nM, which means that their affinity is about 6-fold higher compared to the triphosphate counterparts. The affinities decrease upon CH2 or CCl2 modification of the tetraphosphate bridge (compounds 13–16), but they are still 4–5 times higher than for the triphosphate analogs with the same adenosine methylation pattern.

Human Dcp2 = target: T2, Human Dcp2 (Homo sapiens, UniProt Q8IU60); assay: RNA decapping assay with recombinant hDcp2; format: biochemical; conditions: for Susceptibility to hDcp2 (@30 min): fraction of decapped RNA after 30 min of incubation with hDcp2, 27-nt RNA capped with the analog, 37 °C, triplicates ± SD
T2 construct: made in house; host or cells: E. coli
Experimental: Human Dcp2 was expressed in E. coli and purified as described previously ([52]). Short 27 nt-capped RNAs (24.2 ng) were diluted with decapping buffer (50 mM Tris–HCl pH 8.0, 50 mM NH4Cl, 0.01% NP-40, 1 mM DTT, 5 mM MgCl2 and 2 mM MnCl2; 2.9 μl of freshly prepared 10 × Buffer) and the final volume was adjusted to 29 μl with ultrapure RNase free water. 4.2 ng (5 μl) of the solution was taken out as time zero reference and diluted with 5 μl loading dye (5 M urea, 44% formamide, 20 mM EDTA, 0.03% bromophenol blue, 0.03% xylene cyanol). The remaining RNAs (20 ng/24 μl) were subjected to 10 nM hDcp2 (250 nM, 1 μl) and the mixtures were incubated at 37°C for 1 h. At defined time points (5, 15, 30 and 60 min), 4 ng of RNA (5 μl) were taken out and the reactions were quenched by adding an equal volume of loading dye. RNAs were resolved electrophoretically on denaturing 15% acrylamide:bisacrylamide 19:1/7 M urea/1 × TBE gel, stained with SYBR Gold (Invitrogen) and visualized using a Typhoon FLA 9500 (GE Healthcare). The decapping progress was determined for each time point by densitometry analysis of the gels, as a ratio between the intensity of the band corresponding to capped RNA and the sum of the intensity of bands from capped and uncapped RNAs. The percentages of remaining capped RNA were then plotted as a function of time.
The RNAs used to determine the capping efficiencies were also useful to study the susceptibility of capped RNA to decapping by hDcp2, the catalytic subunit of the major human mRNA decapping complex Dcp1/Dcp2, which releases m^7GDP and 5′-monophosphorylated RNA (in this case the 26-nt pApG-RNA24; Figure 4C). The progress of decapping at different time points (5, 15, 30 and 60 min) was monitored by HR-PAGE followed by densitometric analysis of the gels (Figure 4C, triplicates of gels are shown in Supplementary Figure S2), and the fraction of remaining capped RNA (27-nt) was plotted as a function of time (Figure 4D-G). […] For better visualization, the data of modified capped RNAs were grouped according to the type of modification present at the 5′ end and presented in separate graphs (Figure 4E–G). To quantify the relative susceptibility to hDcp2, we compared the decapping levels at the 30 min time point (Table 1). For RNAs capped with β-S-triphosphate analogs (1–6, Figure 4E, Table 1), we observed a significant difference in susceptibility to hDcp2 between RP and SP isomers, independent of the methylation pattern.

T1 sequence (P06730 whole entry): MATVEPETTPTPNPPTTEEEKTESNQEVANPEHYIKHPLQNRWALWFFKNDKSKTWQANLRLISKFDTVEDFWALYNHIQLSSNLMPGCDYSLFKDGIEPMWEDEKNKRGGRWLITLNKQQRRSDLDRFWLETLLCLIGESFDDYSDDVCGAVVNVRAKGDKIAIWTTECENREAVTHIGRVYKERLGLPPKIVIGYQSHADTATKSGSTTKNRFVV

Structure (SMILES) | Kd (human eIF4E1a) | Susceptibility to hDcp2 (@30 min) (Human Dcp2) | effect of modification on binding affinity for heIF4E1a (in words) (human eIF4E1a; compared to corresponding triphosphates) | susceptibility of capped RNA to decapping by hDcp2 (in words) (Human Dcp2; 27-nt capped RNA, up to 60 min)
C[n+]1cn([C@@H]2O[C@H](COP(=O)(O)O[P@@](=O)([S-])OP(=O)(O)OC[C@H]3O[C@@H](n4cnc5c(N)ncnc54)[C@H](O)[C@@H]3OP(=O)(O)OC[C@H]3O[C@@H](n4cnc5c(=O)[nH]c(N)nc54)[C@H](O)[C@@H]3O)[C@@H](O)[C@H]2O)c2nc(N)nc(O)c21 [Compound 1, m^7GppSpApG] | 12.6 ± 0.8 nM | 0.81 ± 0.16 |  | 
CNc1ncnc2c1ncn2[C@@H]1O[C@H](COP(=O)(O)O[P@@](=O)([S-])OP(=O)(O)OC[C@H]2O[C@@H](n3c[n+](C)c4c(O)nc(N)nc43)[C@H](O)[C@@H]2O)[C@@H](OP(=O)(O)OC[C@H]2O[C@@H](n3cnc4c(=O)[nH]c(N)nc43)[C@H](O)[C@@H]2O)[C@H]1OC [Compound 6, m^7GppSp^m6AmpG] | 21.7 ± 0.6 nM | 0.15 ± 0.10 |  | 
C[n+]1cn([C@@H]2O[C@H](COP(=O)(O)O[P@](=O)([S-])OP(=O)(O)OC[C@H]3O[C@@H](n4cnc5c(N)ncnc54)[C@H](O)[C@@H]3OP(=O)(O)OC[C@H]3O[C@@H](n4cnc5c(=O)[nH]c(N)nc54)[C@H](O)[C@@H]3O)[C@@H](O)[C@H]2O)c2nc(N)nc(O)c21 [Compound 2, m^7GppSpApG] | 15.9 ± 0.9 nM | 0.31 ± 0.09 |  | 
C[n+]1cn([C@@H]2O[C@H](COP(=O)(O)OP(=O)(O)OP(=O)([O-])SC[C@H]3O[C@@H](n4cnc5c(N)ncnc54)[C@H](O)[C@@H]3OP(=O)(O)OC[C@H]3O[C@@H](n4cnc5c(=O)[nH]c(N)nc54)[C@H](O)[C@@H]3O)[C@@H](O)[C@H]2O)c2nc(N)nc(O)c21 [Compound 7, m^7Gppp^5’SApG] | 31.4 ± 1.9 nM | 0.60 ± 0.15 | virtually no effect on binding affinity | 
COC1C(OP(=O)(O)OCC2OC(n3cnc4c(=O)[nH]c(N)nc43)C(O)C2O)C(COP(=O)(O)OP(=O)([S-])OP(=O)(O)OCC2OC(n3c[n+](C)c4c(O)nc(N)nc43)C(O)C2O)OC1n1cnc2c(N)ncnc21 (stereo not shown) [Compound 4, m^7GppSpAmpG] | 16.6 ± 1.1 nM | 0.32 ± 0.10 |  | 
COC1C(OP(=O)(O)OCC2OC(n3cnc4c(=O)[nH]c(N)nc43)C(O)C2O)C(COP(=O)(O)OP(=O)([S-])OP(=O)(O)OCC2OC(n3c[n+](C)c4c(O)nc(N)nc43)C(O)C2O)OC1n1cnc2c(N)ncnc21 (stereo not shown) [Compound 3, m^7GppSpAmpG] | 14 ± 0.8 nM | 0.82 ± 0.09 |  | 
CO[C@@H]1[C@H](OP(=O)(O)OC[C@H]2O[C@@H](n3cnc4c(=O)[nH]c(N)nc43)[C@H](O)[C@@H]2O)[C@@H](COP(=O)([O-])OP(=O)(O)CP(=O)(O)OP(=O)(O)OC[C@H]2O[C@@H](n3c[n+](C)c4c(O)nc(N)nc43)[C@H](O)[C@@H]2O)O[C@H]1n1cnc2c(N)ncnc21 [Compound 16, m^7GppCH2ppAmpG] | 12.1 ± 0.5 nM | 0.27 ± 0.07 |  | significantly reduced the susceptibility to decapping
